Data taken from publication PMC117120 (BMC Biochemistry, 2002).
Where a chain is given by its changes, count along the chain named. “And” between values parts separate entries of the source, which are not always exact repeats. Equal entries are not always repeated.

What was measured:
[1] = biological target: T1, Y152A mutant mouse 5-HT3ASR (Mus musculus, UniProt P23979, Y153A); test: Inhibition of [^3H]granisetron binding, Y152A receptor; settings: for relative increase in Ki, mutant vs wildtype: Y152A vs wildtype
T1 sequence (P23979 24-483 isoform P23979-2 Y153A): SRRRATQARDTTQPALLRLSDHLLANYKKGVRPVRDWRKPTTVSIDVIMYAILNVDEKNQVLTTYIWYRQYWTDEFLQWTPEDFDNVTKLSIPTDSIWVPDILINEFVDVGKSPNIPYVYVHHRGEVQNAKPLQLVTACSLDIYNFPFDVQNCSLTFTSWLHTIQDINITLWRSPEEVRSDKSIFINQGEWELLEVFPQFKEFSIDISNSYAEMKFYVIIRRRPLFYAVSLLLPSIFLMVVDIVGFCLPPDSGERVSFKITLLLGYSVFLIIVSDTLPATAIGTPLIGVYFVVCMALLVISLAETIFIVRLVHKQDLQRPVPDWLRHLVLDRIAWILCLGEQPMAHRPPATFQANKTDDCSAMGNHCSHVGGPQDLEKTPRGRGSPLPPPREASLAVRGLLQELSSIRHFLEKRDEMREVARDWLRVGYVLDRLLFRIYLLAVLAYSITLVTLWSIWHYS

[2] = biological target: T2, E148A mutant mouse 5-HT3ASR (Mus musculus, UniProt P23979, E149A); test: biochemical
T2 sequence (P23979 24-483 isoform P23979-2 E149A): T1 sequence (P23979 24-483 isoform P23979-2 Y153A) with E126A, A130Y

[3] = biological target: T3, H145A mutant mouse 5-HT3ASR (Mus musculus, UniProt P23979, H146A); test: biochemical
T3 sequence (P23979 24-483 isoform P23979-2 H146A): T1 sequence (P23979 24-483 isoform P23979-2 Y153A) with H123A, A130Y

[4] = biological target: T4, V141A mutant mouse 5-HT3ASR (Mus musculus, UniProt P23979, V142A); test: biochemical
T4 sequence (P23979 24-483 isoform P23979-2 V142A): T1 sequence (P23979 24-483 isoform P23979-2 Y153A) with V119A, A130Y

[5] = biological target: T5, Q150A mutant mouse 5-HT3ASR (Mus musculus, UniProt P23979, Q151A); test: biochemical
T5 sequence (P23979 24-483 isoform P23979-2 Q151A): T1 sequence (P23979 24-483 isoform P23979-2 Y153A) with Q128A, A130Y

[6] = biological target: T6, V143A mutant mouse 5-HT3ASR (Mus musculus, UniProt P23979, V144A); test: biochemical
T6 sequence (P23979 24-483 isoform P23979-2 V144A): T1 sequence (P23979 24-483 isoform P23979-2 Y153A) with V121A, A130Y

SMILES	Ki [1]	relative increase in Ki, mutant vs wildtype [1]	Ki [2]	Ki [3]	Ki [4]	Ki [5]	Ki [6]
COc1cc2c3cc1Oc1cc(ccc1O)C[C@@H]1c4c(cc(OC)c(O)c4Oc4ccc(cc4)C[C@@H]3N(C)CC2)CC[N+]1(C)C [d-tc, d-tubocurarine]	60 ± 19 nM	10.0 ± 2.3 fold and 10 fold	14 ± 1.7 nM	19 ± 2.6 nM	4.7 ± 0.87 nM	9.3 ± 1.3 nM	22 ± 2.6 nM
c1ccc(Cn2c(N3CCNCC3)nc3ccccc32)cc1 [lerisetron]	150 ± 36 nM	190 ± 43 fold and 190 fold	2.8 ± 0.53 nM	0.42 ± 0.04 nM	0.2 ± 0.02 nM	1.1 ± 0.21 nM	1.5 ± 0.41 nM
